# According to patent publication US6028110A, “Succinyl hydroxamic acid, N-formyl-N-hydroxy amino carboxylic acid and succinic acid amide derivatives as metalloprotease inhibitors” (British Biotech Pharmaceuticals Ltd., priority 1994, dated 2000):
# Structures can show the parent of a compound that is named as a salt.
# Assays:
# [1] = tested on: collagenase; test: Inhibition of collagenase (acetylated 14C collagen, Cawston and Barrett); format: biochemical; conditions: 37°, 16 hours, pH 7.5
# Protocol: The collagen was acetylated ^14 C collagen prepared by the method of Cawston and Murphy, (Methods in Enzymology, 80, 711, 1981), hereby incorporated by reference. The samples were centrifuged to sediment undigested collagen, and an aliquot of the radioactive supernatant removed for assay on a scintillation counter as a measure of hydrolysis. […] For weak inhibitors, the percentage inhibition (% I) at a concentration of 100 μM is given.
# [2] = tested on: human PUMP-1 (matrilysin); test: Inhibition of human PUMP-1 (matrilysin) ([14C]-casein degradation assay); format: biochemical; conditions: 16 hours at 37° C, recombinant human PUMP-1 expressed in CHO cells
# Protocol: Recombinant human PUMP-1 was expressed in CHO cells and purified by heparin-agarose and Procion Red chromatography. A [^14 C]-casein degradation assay was used to measure PUMP-1 activity. […] The incubation was terminated by addition of trichloroacetic acid (final concentration 10%) and the substrate was separated from the TCA-soluble degradation products by centrifugation at 10,000 g for 15 minutes. […] The inhibitors were dissolved and diluted in DMSO. […] For weak inhibitors, the percentage inhibition (% I) at a concentration of 100 μM is given.
Compound,Collagenase % Inhibition @ 100 μM [1] [% I],PUMP % Inhibition @ 100 μM [2] [% I]
"CCCCCCCCCCCCCCCC[C@H](CC(=O)O)C(=O)N[C@@H](Cc1ccccc1)C(=O)NC [Example 1, 3R-(1S-Methylcarbamoyl-2-phenyl-ethylcarbamoyl)nonadecanoic acid (dicyclohexylamine salt)]",0,20
"CCCCCCCCCCCC[C@H](CC(=O)O)C(=O)N[C@@H](Cc1ccccc1)C(=O)NC [Comparator Example A, 3R-(1S-Methylcarbamoyl-2-phenyl-ethylcarbamoyl)-pentadecanoic acid]",30,10
